For orientation: EC50 means the concentration that produces a half-maximal response. One may read the IC50 as the midpoint of a concentration-inhibition curve.

The values below come from paper PMC10039358, “The 8-bromobaicalein inhibited the replication of dengue, and Zika viruses and targeted the dengue polymerase” (Scientific Reports, 2023).

The test system of one data set is HaCat cells. The following applies: cited from earlier work.
A further data set deals with A549. The following applies: cited from earlier work.
Data set [1] has as its system dengue, Zika, and Japanese encephalitis viruses. The following applies: depending the assay and detection systems ref 32, 47, 48; cited from earlier work.
A further data set is described as follows: in vitro. The following applies: rhesus monkey. An excerpt: (§1) LLC/MK2 (ATCC® CCL-7), HEK-293 (ATCC® CRL-1573), HepG2 (ATCC® HB-8065), THP-1 (ATCC® TIB-202), Huh-7, RD (ATCC® CCL-136™), and C6/36 (ATCC® CRL-1660) cell lines were propagated and maintained as previously described[16],[21],[40],[53]. Reference DENV1 (16007), DENV2 (NGC, 16681), DENV3 (16562), DENV4 (1036), ZIKV (SV0127/14), and EV-A71 (BRCR) were propagated in Vero, C6/36, and R.D. cells as described[16],[21] Phumee et al.[53]. Cytotoxic concentration (CC50) of LLC/MK2, THP-1, HEK-293, HepG2, Huh-7, and R.D. cells were analyzed as previously described. […] Briefly, cells were seeded overnight and infected with each virus at the multiplicity of infection (M.O.I.) of 0.1 for 1 h. The compound was added during and after infection, and cells were incubated for 72 h. Supernatants were collected for 96-well[55] or a traditional 24-well plaque titration.
Supplementary Fig. S2. […] Briefly, cells were seeded overnight before the compound addition.

A further data set has as its target T1, DENV2 NS5/RdRp (Dengue virus type 2, UniProt P29990).
T1 construct: The 73.2 kDa of non-tagged NS5/RdRp was successfully purified by size exclusion chromatography; His-tag (N, cleaved yes); made in house
Kind of data set: In vitro RdRp assay (SYTO-9 fluorescence). The format is biochemical, DENV-2. As for the experimental part:
The production of DENV2 RdRp was performed according to a described protocol. In brief, N-terminally Histidine-tagged DENV2 RdRp (NHis-RdRp) was expressed with 200 µM IPTG (isopropyl-b-D-thiogalactopyranoside) induction, at 37 °C for 4 h. Cell disruption and clarification were sequentially done via sonication and centrifugation at 15,000 rpm for 1 h at 4 °C. His-tagged RdRp was purified by immobilized metal affinity chromatography (IMAC) with 175 mM imidazole elution. His-tag was removed by adding 2 units thrombin per 1 mg protein during dialysis for 2 days at 4 °C. The non-tagged RdRp was further purified by size exclusion chromatography. […]
The RdRp assay for inhibition testing was adapted from the previous publications[46],[71]. […] The nascent double-stranded RNA was quantitated by mixing 10 µl of the reaction mixture with 10 µl of 5 µM SYTO-9 dye in Tris–EDTA buffer and incubating at room temperature for 5 min. Fluorescence was measured at excitation and emission wavelengths of 485 nm and 520 nm, respectively, by using EnSight Multimode Plate Reader (Perkin Elmer, Waltham, MA, USA). The IC50 value was calculated from three independent experiments by using PRISM version 9 (GraphPad Software, Inc., La Jolla, CA, USA).

In a further data set the test system is Vero. The following applies: cited from earlier work.
In another data set the test system is DENV4 (1036). Kind of data set: Antiviral efficacy (EC50), plaque titration. The format is cell-based. The following applies: LLC-MK2, 72 h.
Text: as §1

The subject of the next data set is DENV1 (16008). Nature of the data set: Antiviral efficacy (EC50), plaque titration. Type of data set: cell-based. The following applies: LLC-MK2, 72 h.
Text: as §1

In the next data set the test system is DENV2 (NGC). Kind of data set: Antiviral efficacy (EC50), plaque titration. The format is cell-based. The following applies: Dengue virus, DENV2, LLC-MK2, 72 h.
Text: as §1

The test system of a further data set is DENV3 (16562). Kind of data set: Antiviral efficacy (EC50), plaque titration. The format is cell-based. The following applies: LLC-MK2, 72 h.
Text: as §1

The subject of the next data set is ZIKV (SV0127/14). Nature of the data set: Antiviral efficacy (EC50), plaque titration. The format is cell-based. The following applies: Zika virus; ZIKV (SV0127/14), LLC/MK2 cells, M.O.I. 0.1, 72 h.
Text: as §1

Take `O=c1cc(-c2ccccc2)oc2cc(O)c(O)c(O)c12` [baicalein, 5,6,7-trihydroxyflavone]: the values for the CC50 in the data set with HaCat cells, with A549 and in the data set on Vero were over 200000 nM, over 50000 nM and over 100000 nM, respectively. Also, the EC50 in [1] was 4 to 24000 nM; in the data set on DENV4 (1036) it was 930 ± 130 nM; with DENV1 (16008) it was 1400 ± 380 nM; with DENV2 (NGC), 4040 ± 1370 nM; in the data set with DENV3 (16562), 1190 ± 660 nM; with ZIKV (SV0127/14), 1580 ± 420 nM. Moreover, in “in vitro”, the CC50 at 48 h is over 250000 nM. The same molecule came in with an IC50 against DENV2 NS5/RdRp of 242000 nM.
